In US20050169839A1, “Biomarker for efficacy of appetite suppressant drugs” (priority 2002, published 2005):
“And” between values parts separate entries of the source, which are not always exact repeats. Equal entries are not always repeated.

Legend:
Format in all cases: in vivo, rat
[1] = Body weight change after 4-day dosing in male DIO rats; conditions: for BW change (g), mean: group mean
Method: (§1) To determine if plasma AGRP level correlates with a subject's intake of MC4R agonists given as appetite suppressants, we measured plasma AGRP level in DIO rats after treatment with specific MC4 agonists. Male DIO rats were treated either with an MC4 agonist (15 mg/kg, po, b.i.d., for 4 days, n=7) or with vehicle (n=7). The specific MC4 agonist used for treatment was (aR)-N,N-bis(4-[(tert-butylamino)carbonyl]-4-cyclohexyl 1-{4-fluoro-N-[(2-methyl-2-azabicyclo[2.2.1]hept-6-yl)carbonyl]-D-phenylalanyl}piperidin-2-yl)-4-fluoro-N-[(2-methyl-2-azabicyclo[2.2.1]hept-6-yl)carbonyl]-D-phenylalaninamide hydrochloride (hereinafter Compound A).
(§2) After 4 days of treatment with Compound A or with vehicle, plasma samples were obtained from each rat. Plasma AGRP level was thereafter determined using an RIA Kit from Phoenix Pharmaceuticals, Inc. (Belmont, Calif.).
(§3) In a different experiment, groups of male DIO rats were treated either with a second MC4R agonist (20 mg/kg, po, b.i.d., for 4 days, n=6) or with vehicle (n=5). In this study, the specific MC4 agonist used was 4-[2-methylaminocarbonyl-4-flurorphenyl]-1-{[(3S, 4R)-1-tert-butyl-4-(2,4-difluorophenyl)-pyrrolidin-3-yl]carbonyl}piperidine (hereinafter Compound B). […] For each treatment group, plasma samples were collected after 4 days of treatment and AGRP level was measured using an RIA Kit from Phoenix Pharmaceuticals, Inc. (Belmont, Calif.).
as §2, with “Male DIO rats were treated either with S(+) fenflurarnine (3 mg/kg, po, b.i.d., for 4 days, n=7) or with vehicle (n=5). […] After” for “After”

plasma AGRP = experiment: Plasma AGRP level (RIA) after 4-day dosing in male DIO rats; conditions: for AGRP (pg/0.1 mL), mean / AGRP (pg/0.1 mL): plasma; for AGRP (pg/0.1 mL), mean: group mean
Description: A human AGRP RIA assay kit (Phoenix Pharmaceuticals, Inc., Belmont, Calif.), a human leptin RIA kit (Linco Research, Inc., St. Charles, Mo.), and a human specific insulin RIA kit (Linco Research, Inc., St. Charles, Mo.), were used to measure AGRP, leptin, and insulin, respectively in human plasma samples. A Phoenix AGRP RIA kit, which contains synthetic human AGRP (aa83-132) as a standard, was also used to measure AGRP level in rat plasma samples. […] Statistical comparison is based on one-way ANOVA, t or paired t test.
as §1, §2, §3
as §2, with “Male DIO rats were treated either with S(+) fenflurarnine (3 mg/kg, po, b.i.d., for 4 days, n=7) or with vehicle (n=5). […] After” for “After”

[2] = Body weight change after 4-day sibutramine dosing in male Sprague-Dawley rats; conditions: sibutramine 3 mg/kg oral once daily for 4 days; mean±standard error; n=7; vehicle gained 23.6±4.16 g
Method: Male Sprague-Dawley rats (Charles River Laboratories, Wilmington, Mass.), which were 71 days of age at the beginning of the experiment, were treated with either vehicle alone (0.5% methyl cellulose; n=5 rats) or sibutramine (3 mg/kg of body weight in 0.5% methyl cellulose; n=7 rats). The treatment regime consisted of a single daily oral dose of the test compound every day for 4 days.
The body weight of each rat was measured before commencement of the experiment and at its conclusion. After 4 days of treatment with either test compound, plasma samples of each rat were collected for the measurement of AGRP level. […] The AGRP kit contains a synthetic human AGRP fragment (aa83-132) as the standard. […] For AGRP RIA, 100 μl rat plasma was used per assay. […] Statistical comparison is based on unpaired t test.

[3] = Compound B 20 mg/kg po b.i.d. 4 days, n=6
[4] = Compound B 20 mg/kg po b.i.d. 4 days, individual rats 1-6
[5] = S(+) fenfluramine 3 mg/kg po b.i.d. 4 days, n=7
[6] = S(+) fenfluramine 3 mg/kg po b.i.d. 4 days, individual rats 1-7
[7] = Compound A 15 mg/kg po b.i.d. 4 days, n=7
[8] = Compound A 15 mg/kg po b.i.d. 4 days, individual rats 1-7, hydrochloride, 15 mg/kg

CNC(=O)c1cc(F)ccc1C1CCN(C(=O)[C@@H]2CN(C(C)(C)C)C[C@H]2c2ccc(F)cc2F)CC1 [Compound B, 4-[2-methylaminocarbonyl-4-flurorphenyl]-1-{[(3S, 4R)-1-tert-butyl-4-(2,4-difluorophenyl)-pyrrolidin-3-yl]carbonyl}piperidine]
effect on body weight (in words) ([1]; Compound B 20 mg/kg po b.i.d. 4 days, DIO rats): not effective at reducing body weight | BW change (g), mean [1, 3]: 17.5 g | BW change [1, 4]: 25 g (2×) and 5 g and 23 g and 15 g and 12 g | body weight gained ([1]; Compound B 20 mg/kg po b.i.d. 4 days, mean±standard error, vehicle gained 14.2±1.9 g): 17.5 ± 3.3 g | AGRP (pg/0.1 mL), mean (plasma AGRP; [3]): 48.4 pg/0.1 mL | AGRP (pg/0.1 mL) (plasma AGRP; [4]): 45.6 pg/0.1 mL and 26 pg/0.1 mL and 39.8 pg/0.1 mL and 66.9 pg/0.1 mL and 47 pg/0.1 mL and 64.8 pg/0.1 mL | Plasma AGRP level (plasma AGRP; Compound B 20 mg/kg po b.i.d. 4 days, vehicle 45.8±14): 48.4±6.3 pg/100 μl plasma

CCN[C@@H](C)Cc1cccc(C(F)(F)F)c1 [S(+) fenfluramine, reference compound]
BW change (g), mean [1, 5]: -16.3 g | BW change [1, 6]: −25 g and −13 g (2×) and −10 g (2×) and −15 g and −28 g | body weight lost ([1]; S(+) fenfluramine 3 mg/kg po b.i.d. 4 days, mean±standard error, vehicle gained 14.2±1.9 g): 16.3 ± 2.7 g | AGRP (pg/0.1 mL), mean (plasma AGRP; [5]): 48.3 pg/0.1 mL | AGRP (pg/0.1 mL) (plasma AGRP; [6]): 39.3 pg/0.1 mL and 22.8 pg/0.1 mL and 57.8 pg/0.1 mL and 62.6 pg/0.1 mL and 94.4 pg/0.1 mL and 16.9 pg/0.1 mL and 44.6 pg/0.1 mL | average plasma AGRP level (plasma AGRP; S(+) fenfluramine 3 mg/kg po b.i.d. 4 days, vehicle 45.8±14): 48.3±9.9 pg/100 μl plasma

CC(C)CC(N(C)C)C1(c2ccc(Cl)cc2)CCC1.Cl.O (centres unmarked) [sibutramine, N-{1-[1-(4-chlorophenyl)cyclobutyl]-3-methylbutyl}-N,N-dimethylamine hydrochloride monohydrate]
body weight gained [2]: 10 ± 4.76 g

(aR)-N,N-bis(4-[(tert-butylamino)carbonyl]-4-cyclohexyl 1-{4-fluoro-N-[(2-methyl-2-azabicyclo[2.2.1]hept-6-yl)carbonyl]-D-phenylalanyl}piperidin-2-yl)-4-fluoro-N-[(2-methyl-2-azabicyclo[2.2.1]hept-6-yl)carbonyl]-D-phenylalaninamide hydrochloride [Compound A]
BW change (g), mean [1, 7]: -4.9 g | BW change [1, 8]: 2 g and 1 g and −2 g and −5 g and −7 g (2×) and −16 g | body weight lost ([1]; Compound A 15 mg/kg po b.i.d. 4 days, mean±standard error, vehicle gained 3.7±1.4 g): 4.9 ± 2.3 g | Plasma AGRP level (plasma AGRP; Compound A 15 mg/kg po b.i.d. 4 days, mean±standard error): 36.2±2.5 pg/100 μl plasma | AGRP (pg/0.1 mL), mean (plasma AGRP; [7]): 36.2 pg/0.1 mL | AGRP (pg/0.1 mL) (plasma AGRP; [8]): 35.8 pg/0.1 mL and 42.2 pg/0.1 mL and 38.1 pg/0.1 mL and 46.2 pg/0.1 mL and 33 pg/0.1 mL and 26.5 pg/0.1 mL and 31.6 pg/0.1 mL
